What all share (format): in vivo, adult patients
The subject of data set [1] is persistent allergic rhinitis. Nature of the data set: Clinical study in persistent allergic rhinitis: Total 5 Symptoms Score (T5SS). The text has this: (§1) For clinical symptoms, it was considered that a 1 point score reduction is clinically relevant. For health-related quality of life, it was considered that a 0.36 point score reduction is relevant. Secondary parameters of efficacy included different durations of treatment, different symptoms, different quality of life questionnaires, the incidence of co-morbidities suspected to be linked to allergic rhinitis and pharmaco-economic variables.
(§2) The target population of this example consisted of adults aged more than 18 years suffering from persistent allergic rhinitis [WHO Initiative on Allergic Rhinitis and its Impact on Asthma (ARIA), 2000, pages S147-S149]. To be enrolled, the subjects needed to have sufficient rhinitis symptoms during the selection period. Excluded were patients with ENT or eye infection during the 2-weeks preceding initial visit.
(§3) The study was a prospective, randomized, double blind, parallel group, and placebo-controlled study with levocetirizine dihydrochloride.
(§4) The severity of clinical symptoms was rated by the T5SS (sneezing, rhinorrhea, nasal pruritus, ocular pruritus and nasal congestion) evaluated each by a score from 0 to 3. The impact on health related quality of life was measured using the Rhinoconjunctivitis Quality of Life Questionnaire (RQLQ) (E. JUNIPER and G. H. GUYAIT, Development and testing of a new measure of health status for clinical trials in rhinoconjunctivitis, Clinical and Experimental Allergy 1991; 21:77-83; E. JUNIPER, Measuring Health Related Quality of Life in rhinitis, J. Allergy Clin. Immunol. 1997; 99:S742-9).
(§5) Study treatment lasted for 6 months. After the treatment period, patients entered a 1-week follow-up period.
(§6) The primary end-point for efficacy was a decrease of the T5SS over the first 4 weeks of at least 1 unit of score. The primary end-point for quality of life was a decrease of RQLQ after 4 weeks of at least 0.36 unit of the total score.
(§7) Secondary parameters of efficacy included the mean T5SS, the RQLQ and the SF-36 questionnaire at the different time points of the study, and the incidence and the duration of rescue medication over 6 months.
(§8) Oral tablets of levocetirizine dihydrochloride (5 mg) and matching placebo, similar in appearance, shape and taste were used. The recommended study dosage was 1 tablet per day.

Data set [2] has as its system persistent allergic rhinitis. Nature of the data set: Clinical study in persistent allergic rhinitis: Rhinoconjunctivitis Quality of Life Questionnaire (RQLQ).
From the text: as §1, §2, §3, §4, §5, §6, §7, §8
Sample size was based on 40% relative improvement over placebo in the RQLQ questionnaire, assuming an improvement from baseline for placebo of 0.9. For this questionnaire this corresponds to a difference of 0.36 vs. placebo.

For data set [3], the system named is persistent allergic rhinitis. Nature of the data set: Clinical study in persistent allergic rhinitis: individual rhinitis symptom scores (nasal congestion, sneezing, rhinorrhea, nasal pruritus, ocular pruritus). To be noted: for Effect on nasal congestion / nasal obstruction (in words): long term treatment.
From the text: as §1, §2, §3, §4, §5
Exploratory parameters of efficacy included the mean of each individual rhinitis score, each RQLQ domain and each scale of the SF-36 questionnaire at the different time points of the study, the Global Evaluation Scale after 4 weeks and 6 months, the incidence of co-morbidities suspected to be linked to allergic rhinitis and the pharmaco-economic direct and indirect costs over 6 months.
as §8

Data set [4] has as its system persistent allergic rhinitis. Nature of the data set: Clinical study in persistent allergic rhinitis: safety of long-term treatment. To be noted: 5 mg once per day; 6 month treatment. The text has this: The aim of the study relative to the clinical effect of levocetirizine dihydrochloride was to establish on the intention to treat (ITT population) whether a 6 month levocetirizine dihydrochloride treatment can improve the quality of life and clinical symptoms from adult patients suffering from persistent allergic rhinitis, when compared to placebo. For clinical symptoms, it was considered that a 1 point score reduction is clinically relevant. For health-related quality of life, it was considered that a 0.36 point score reduction is relevant. Secondary parameters of efficacy included different durations of treatment, different symptoms, different quality of life questionnaires, the incidence of co-morbidities suspected to be linked to allergic rhinitis and pharmaco-economic variables. The safety of this long-term treatment with levocetirizine dihydrochloride has also been evaluated.
At each of the eight visits, diary book entries (T5SS, RQLQ, SF-36, indirect cost pharmaco-economic parameters, concomitant medication, outpatient consultations and adverse events) were verified and transferred into the Clinical Record Form and direct cost pharmaco-economic parameters were recorded. Patients underwent a physical examination, including the measurement of vital signs. […]
Adverse events were recorded by the patients on diary cards and discussed with the investigator at each visit. […]

Where [5] appears, read: 5 mg once per day, 6 month treatment.
The mark [6] stands for this setting: 5 mg oral tablet once per day, over the first four weeks of treatment, ITT population.
Where [7] appears, read: 5 mg oral tablet once per day, after first 4 weeks of treatment, ITT population.
The mark [8] stands for this setting: 5 mg, 3 months, evaluated over the 24 hours, ITT population.
The mark [9] stands for this setting: 5 mg, 4.5 months, evaluated over the 24 hours, ITT population.
[10] abbreviates: 5 mg, 6 months, evaluated over the 24 hours, ITT population.
[11] abbreviates: 5 mg, First 4 weeks, evaluated over the 24 hours, ITT population.
Where [12] appears, read: 5 mg, Week 1, evaluated over the 24 hours, ITT population.

Structures can show the parent of a compound that is named as a salt.

Turning to `O=C(O)COCCN1CCN([C@H](c2ccccc2)c2ccc(Cl)cc2)CC1` [Lctz, levocetirizine dihydrochloride], the “Duration of effect on rhinitis” value in data set [1] (setting [5]) was “has an effect on rhinitis up to 6 months”. The “Tachyphylaxis (need to adjust the dosing schedule)” value in data set [1] (5 mg once per day, during 6 months) is on record as “lack of tachyphylaxis”. In data set [1] (setting [6]), the “Mean T5SS, Adjusted mean (adjusted for baseline score and country)” value is 5.43. Besides, the “Mean T5SS, Mean (SD)” value in data set [1] (setting [6]) is on record as 5.53 (2.52). Further, the “Mean T5SS, Diff. vs. placebo (95% CI), placebo minus Lctz 5 mg” value in data set [1] (5 mg oral tablet once per day, over the first four weeks of treatment, ITT population, dihydrochloride) is reported as 1.14. For the same molecule, the “Duration of effect on quality of life” value in data set [2] (setting [5]) was “has an effect on quality of life up to 6 months”. Besides, in data set [2] (setting [7]), the “Change from baseline of the RQLQ Overall Score, Adjusted Mean (adjusted for baseline score and country)” value is recorded as −1.49. In addition, the “Change from baseline of the RQLQ Overall Score, Mean” value in data set [2] (setting [7]) is reported as −1.50. The “Change from baseline of the RQLQ Overall Score, Diff. vs. placebo (95% CI), placebo minus Lctz 5 mg” value in data set [2] (5 mg oral tablet once per day, after first 4 weeks of treatment, ITT population, dihydrochloride) worked out at 0.48. Also, the “Improvement of sneezing, rhinorrhea, nasal pruritus and ocular pruritus” value in data set [3] (5 mg once per day, at all time points, vs. placebo) was “statistically significant improvement”. Moreover, the “Effect on nasal congestion / nasal obstruction (in words)” value in data set [3] (5 mg once per day, listed as Levocetirizine, dihydrochloride) is recorded as “active on nasal obstruction after a long term treatment (equal or more than 3 months)”; in data set [3] (5 mg once per day, listed as levocetirizine dihydrochloride, dihydrochloride), “has an effect on nasal congestion after 3 months”. Also, the “Nasal congestion symptoms, Adjusted Mean” value in data set [3] (setting [8]) worked out at 1.16; in data set [3] (setting [9]) it was 1.11; in data set [3] (setting [10]) it was 1.08; in data set [3] (setting [11]) it was 1.40; in data set [3] (setting [12]) it was 1.58. For the same molecule, the “Nasal congestion symptoms, Mean (SD)” value in data set [3] (setting [8]) was 1.22 (0.78); in data set [3] (setting [9]) it was 1.17 (0.77); in data set [3] (setting [10]), 1.13 (0.76); in data set [3] (setting [11]) it was 1.44 (0.78); in data set [3] (setting [12]), 1.61 (0.83). In addition, the “Nasal congestion symptoms, Diff. vs. (95% CI), placebo minus Lctz” value in data set [3] (5 mg, 3 months, evaluated over the 24 hours, ITT population, dihydrochloride) came out at 0.15. Besides, in data set [4], the “Safety of long-term administration” value was “did not involve particular safety concerns”.

Source of the values: patent US20060247258A1, “Use of levocetirizine for the treatment of persistent allergic rhinitis” (UCB Farchim S.A., priority 2002, published 2006).
